Assay results taken from patent US6423696B1, “Inhibition of arylamine N-acetyl transferase” (The United States of America, as represented by the …, priority 1999, dated 2002).
Read-outs that look alike come from different tables or passages of the source. Blank lines part the entries; values can stand above or below the compound they belong to.

Key:
[1] = target: T1, NAT-2 (Homo sapiens, UniProt P11245); assay: Acetylation in human liver subcellular preparation (cytosol), NAT-2 substrates, cross inhibition; format: biochemical; design: from tissue; host or cells: human liver cytosol (105,000 g supernatant); key to inhibition of acetylation of substrate DDS / inhibition of acetylation of substrate SMZ / inhibition of acetylation of substrate INH: ++ = strong inhibition; −− = no inhibition; conditions: for formation of acetylated metabolite, substrate incubated alone: incubated separately with human liver cytosol
T1 sequence (P11245 1-290): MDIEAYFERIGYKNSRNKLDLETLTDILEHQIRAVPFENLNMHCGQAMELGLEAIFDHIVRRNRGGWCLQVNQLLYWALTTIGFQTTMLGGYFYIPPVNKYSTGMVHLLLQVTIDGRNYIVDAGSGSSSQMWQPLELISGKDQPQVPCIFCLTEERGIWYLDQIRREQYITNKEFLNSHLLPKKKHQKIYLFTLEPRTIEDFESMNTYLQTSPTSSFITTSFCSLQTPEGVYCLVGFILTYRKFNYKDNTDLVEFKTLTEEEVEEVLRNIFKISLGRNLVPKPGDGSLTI
Protocol: The reaction was terminated by the addition of perchloric acid to a final concentration of 1.5%.
INH, DDS, SMZ were incubated with human liver subcellular preparations as described in Example 1. The reactions were allowed to proceed for thirty minutes at 37° C. before termination by addition of perchloric acid. […] For INH, 1-octanesulfonic acid (5 mM) was added to the mobile phase.

[2] = target: T2, NAT-1 (Homo sapiens, UniProt P18440); assay: Acetylation in human liver subcellular preparation (cytosol), NAT-1 substrates, HPLC of N-acetylated metabolites
T2 sequence (P18440 1-290): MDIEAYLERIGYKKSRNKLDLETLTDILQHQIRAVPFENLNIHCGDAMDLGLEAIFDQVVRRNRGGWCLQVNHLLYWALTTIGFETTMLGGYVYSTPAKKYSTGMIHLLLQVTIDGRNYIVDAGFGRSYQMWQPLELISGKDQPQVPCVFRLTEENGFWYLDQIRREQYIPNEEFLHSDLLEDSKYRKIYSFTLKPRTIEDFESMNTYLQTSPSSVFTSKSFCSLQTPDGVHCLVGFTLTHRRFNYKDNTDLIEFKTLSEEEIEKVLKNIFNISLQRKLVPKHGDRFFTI
Protocol: Human liver was homogenized and prepared by high-speed differential centrifugation. A preliminary centrifugation was performed at 13,000 g for 20 min.
The formation of N-acetylated metabolites was quantified by HPLC. Samples from the incubates were injected onto a reverse-phase column (e.g., Waters Symmetry C18, 5 micron, 4.6×150 mm). […] Drugs and their N-acetylated metabolites were quantitated by UV absorption using a diode-array detector.
The substrates assayed above were then co-incubated with human liver subcellular preparations.

[3] = target: T2, NAT-1; conditions: human volunteer
Protocol: On the fourth and fifth days, PAS was also administered at its standard dose of 4 g every 8 hours.

[4] = target: T2, NAT-1; conditions: 4 hours
Protocol: Human hepatocytes were incubated at 37° C. at a ratio of 1 million cells per ml in modified Williams E buffer. Either cryopreserved hepatocytes in suspension or freshly-isolated hepatocytes attached to microtiter plates were used. The reaction was initiated by addition of substrate, and terminated after 4 hours by the addition of perchloric acid. As before, parallel incubations were conducted for drug alone versus drug plus potential inhibitors. Percent inhibition was calculated from the ratio of [Acetylated metabolite]/[parent] with and without the potential inhibitor.

[5] = target: T1, NAT-2; assay: Acetylation in human hepatocyte culture, NAT-2 substrates; format: cell-based; conditions: human hepatocytes
Protocol: INH, DDS and SMZ were incubated with human hepatocytes as described in Example 1. Parallel cultures were conducted for each drug alone and each drug plus dichlorphenamide as a potential inhibitor. An additional culture of DDS was incubated with SMZ, a potential inhibitor. […] In addition, SMZ inhibited acetylation of DDS.

[6] = human liver cytosol, 30 min, 37° C.

inhibition of acetylation of substrate SMZ [1, 6]: ++
Structure (SMILES): CCC1(c2ccc(N)cc2)CCC(=O)NC1=O (stereo not shown) [AG, aminoglutethimide]

formation of acetylated metabolite, substrate incubated alone [1]: Acetylated metabolites were found
Structure (SMILES): Nc1ccc(S(=O)(=O)c2ccc(N)cc2)cc1 [DDS, dapsone]

formation of acetylated metabolite, substrate incubated alone [1]: Acetylated metabolites were found
inhibition of acetylation of substrate DDS [1, 6]: ++
Structure (SMILES): NNC(=O)c1ccncc1 [INH, isoniazid]

inhibition of acetylation to Ac-PAS ([2]; 200 μM inhibitor co-incubated with 20 μM PAS, human liver cytosol, 15 min, 37° C.): no Ac-PAS was detected
Structure (SMILES): Nc1ccc(C(=O)O)cc1 [PABA, para-amino-benzoic acid]

Structure (SMILES): Nc1ccc(C(=O)O)c(O)c1 [PAS, para-amino-salicylate]
PAS concentrations in plasma on Day 5 ([3]; PAS 4 g every 8 hours, HPLC, FIG. 5): exceed the levels required to inhibit NAT-1
plasma concentration of Ac-SMX, Day 5 (with PAS) vs Day 3 (baseline) ([3]; SMX 500 mg every 12 hours for 5 days, PAS 4 g every 8 hours on days 4 and 5, FIG. 2): almost completely abolished
inhibition of acetylation to Ac-PABA ([2]; 200 μM inhibitor co-incubated with 20 μM PABA, human liver cytosol, 15 min, 37° C.): blockage of all measurable acetylation
inhibition of acetylation to Ac-SMX ([2]; 200 μM inhibitor co-incubated with 200 μM SMX, human liver cytosol, 15 min, 37° C.): 50%
formation of acetylated metabolite, substrate incubated alone ([2]; human liver subcellular preparation, HPLC, FIG. 1): a single metabolic peak
reduction of Ac-SMX formation ([4]; 200 μM PAS co-incubated with 200 μM SMX, human hepatocytes): 60%
formation of acetylated metabolite, substrate incubated alone ([4]; 200 μM incubated separately with human hepatocytes): formation of Ac-PAS and Ac-SMX

inhibition of acetylation of DDS ([5]; substrate DDS): inhibited
formation of acetylated metabolite, substrate incubated alone [1]: Acetylated metabolites were found
inhibition of acetylation of substrate DDS [1, 6]: ++
Structure (SMILES): Cc1cc(C)nc(NS(=O)(=O)c2ccc(N)cc2)n1 [SMZ, sulphamethazine]

inhibition of acetylation of all substrates (INH, DDS, SMZ) ([5]; substrates INH, DDS and SMZ): strongly inhibited
inhibition of acetylation of substrate DDS [1, 6]: ++
inhibition of acetylation of substrate INH ([1]; substrate INH, human liver cytosol, 30 min, 37° C.): −−
inhibition of acetylation of substrate SMZ [1, 6]: ++
Structure (SMILES): NS(=O)(=O)c1cc(Cl)c(Cl)c(S(N)(=O)=O)c1 [dichlorphenamide]
